According to patent publication US6893830B1, “Method of screening oxysterol activation of LXRα” (The Board of Regents of the University of Texas System, priority 1996, dated 2005):

Molecular target: T1, LXRα (Homo sapiens, UniProt Q13133)
T1 sequence (Q13133 1-447): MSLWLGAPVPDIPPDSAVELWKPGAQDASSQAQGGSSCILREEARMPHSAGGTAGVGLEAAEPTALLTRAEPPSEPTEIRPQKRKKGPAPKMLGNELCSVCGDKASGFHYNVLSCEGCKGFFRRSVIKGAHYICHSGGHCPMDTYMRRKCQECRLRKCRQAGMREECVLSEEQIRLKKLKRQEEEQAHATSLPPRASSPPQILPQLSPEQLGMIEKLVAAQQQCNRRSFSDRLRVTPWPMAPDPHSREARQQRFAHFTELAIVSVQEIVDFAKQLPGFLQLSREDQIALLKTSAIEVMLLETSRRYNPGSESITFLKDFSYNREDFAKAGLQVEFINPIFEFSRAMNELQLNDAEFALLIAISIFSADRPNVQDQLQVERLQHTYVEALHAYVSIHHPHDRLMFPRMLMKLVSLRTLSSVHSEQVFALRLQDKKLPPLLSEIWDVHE
T1 sequence (P19793 1-462 partner): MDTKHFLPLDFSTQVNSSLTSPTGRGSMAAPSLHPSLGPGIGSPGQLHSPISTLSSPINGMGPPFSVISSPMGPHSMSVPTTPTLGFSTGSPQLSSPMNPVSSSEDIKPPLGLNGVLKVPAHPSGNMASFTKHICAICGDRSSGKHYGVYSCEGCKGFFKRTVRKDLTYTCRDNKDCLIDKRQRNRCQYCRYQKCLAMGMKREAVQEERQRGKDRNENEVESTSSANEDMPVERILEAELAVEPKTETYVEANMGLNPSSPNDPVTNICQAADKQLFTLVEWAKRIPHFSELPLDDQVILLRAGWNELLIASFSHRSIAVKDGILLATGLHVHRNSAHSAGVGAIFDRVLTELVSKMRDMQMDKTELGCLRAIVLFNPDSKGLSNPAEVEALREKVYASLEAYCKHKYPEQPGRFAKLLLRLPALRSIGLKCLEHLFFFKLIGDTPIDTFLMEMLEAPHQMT
Assay: LXRα cotransfection assay with TK-LXREx3-LUC reporter in CV-1 cells
Format: cell-based
Parameters: expressed in transfected cells; host or cells: CV-1 monkey kidney cells
Description: FIG. 1 Human LXRα is activated by gonad sterols. (A) Transactivation of LXRα ligand binding domain (LBD) with testis extract. CV-1 cells were cotransfected with a GAL4 responsive luciferase reporter plasmid and an expression plasmid encoding no receptor or a chimeric receptor composed of the GAL4 DNA binding domain fused to the LXRα ligand binding domain (LBD) (GAL4-LXRα)^3. After transfection, cells were treated with ethanol (ETOH) or 1% of the concentrated testis extract. (B) Transactivation of LXRα with follicular fluid meiosis activating substance (FF-MAS). CV-1 cells were cotransfected with an LXRα responsive reporter plasmid and the receptor expression plasmids for LXRα alone or with RXRα. After transfection, cells were treated with ETOH or […] FF-MAS.
FIG. 2 LXRα is activated by a specific subset of oxysterols. (A) Specificity of LXRα activators. Shown is a representative group from 70 compounds evaluated for LXRα activity (10 μM) in cotransfection assays as described in FIG. 1B. […] (B) The the structure-activity relationship of LXRα activators. Data compiled from FIG. 2A and other experiments (not shown) reveal that the position of the hydroxyl on the cholesterol backbone is a determinant of LXRα activity. […] Dose response curves for LXRα activators were generated in CV-1 cell cotransfection assays as described in FIG. 1B.
Organic extraction of breeding bull testis was performed as described^6. Briefly, 12 grams of lyophilized testis was extracted with N-heptane and lipids were concentrated by roto-evaporation. Aliquots representing 1% of this material were assayed. FF-MAS was synthesized as described^18. Transient transfections in CV-1 monkey kidney cells were performed in triplicate in 48-well plates as described^3 with media containing 5% cabosil-treated calf bovine serum.
Transfections were performed in FIG. 1A using 80 ng of TK-MH100x4-LUC reporter and 30 ng of CMX-GAL4-hLXRα expression plasmids per well; and in FIG. 1B using 50 ng of TK-LXREx3-LUC reporter and 25 ng of CMX-hLXRa alone or with 25 ng CMX-hRXRa expression plasmids per well. Candidate ligands were dissolved in ethanol and added 8 hours post-transfection. As an internal standard, 50 ng of CMX-β gal was included in all transfections. All plasmid constructs and determinations of luciferase and β-galactosidase activities have been described^3. To construct CMX-LXRα, the hLXRα cDNA insert was excised from the plasmid pXR2DRV (Willy, et al., 1995, Genes Dev. 9: 1033-1045) with Kpnl and BamHI and was ligated into the expression vector CMX. CMX-βgal was constructed by ligating the β-galactosidase gene into the expression vector CMX. Chimeric Gal4-receptor expression plasmid (CMX-GAL4-LXRα) was constructed by first ligating the GAL4 portion of pSC424 (Sadowski, I. and M. Ptashne, 1989, Nucleic Acids Res. 19: 7539-7530) into the HindIII/SacI sites of pCMX (Umesono, et al., 1991, Cell 65: 1255-1266) to create pCMX-GAL4. This vector contains the CMV promoter fused to the coding sequence for GAL4 (1-147), followed by inframe polylinker cloning sites and translational stop codons. The cDNAs encoding the ligand-binding domain (LBD) of hLXRα (amino acids 166-447) was then ligated into the polylinker to create CMX-GAL4-LXRα.
Reporter plasmids for these studies were constructed by ligating the appropriate oligonucleotides into the HindIII site of the TK-LUC vector to create TK-LXREx3-LUC, TK-MH100x4-LUC (Kang, T., et al., 1993, J. Biol Chem. 268: 9629-9635). The sense strand of the LXRE oligonucleotide used to construct the reporter plasmid TK-LXREx3-LUC was 5′agctt[…]3′ (SEQ. ID. NO. 1). All constructs were verified by sequencing. Data are presented as relative light units (RLUs) and represent the mean of triplicate assays±standard error. […]

## CC(C)CC[C@@H](O)[C@@H](C)[C@H]1CC[C@H]2[C@@H]3CC=C4C[C@@H](O)CC[C@]4(C)[C@H]3CC[C@]12C [22(R)-hydroxycholesterol]
  EC50: 1500 nM
